Data: patent publication US20110015371A1 (Vertex Pharmaceuticals Incorporated, priority 1994, published 2011)
Non-standard residues stand in square brackets, D forms with d. Residues, ends and D or L forms follow the SMILES beside them. Pip = O=C(O)[C@@H]1CCCCN1

Tests used:
[1] = system: Human Peripheral Blood Mononuclear Cells (PBMC) or Enriched Adherent Mononuclear Cells; test: Cell assay: IL-1β assay with human PBMC or enriched adherent mononuclear cells; format: cell-based; details: Homo sapiens, PBMC, LPS-stimulated cells, mature IL-1β in supernatant by ELISA
Outline: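 Human PBMC (suspension at 6×10^6 cells/ml) or adherent monocytes enriched by 1 h plating (2.5−3.0×10^5 cells/well) were stimulated with 5 ng/ml LPS (final) plus compound (5-6 dilutions, 0.1% DMSO final) for 16-18 hr at 37° C. Mature IL-1β in supernatants quantified by ELISA; duplicate cultures, duplicate ELISAs.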

ICE [2] = molecular target: T1, ICE (Homo sapiens, UniProt P29466); test: Enzyme assay with UV-visible substrate (Succinyl-Tyr-Val-Ala-Asp-pNitroanilide); format: biochemical
T1 sequence (P29466 120-297 limits assumed): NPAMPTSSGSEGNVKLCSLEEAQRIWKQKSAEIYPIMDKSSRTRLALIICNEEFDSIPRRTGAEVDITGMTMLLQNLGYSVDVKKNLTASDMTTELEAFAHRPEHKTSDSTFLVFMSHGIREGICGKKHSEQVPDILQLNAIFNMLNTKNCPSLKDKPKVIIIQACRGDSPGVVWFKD
T1 sequence (P29466 317-404 limits assumed): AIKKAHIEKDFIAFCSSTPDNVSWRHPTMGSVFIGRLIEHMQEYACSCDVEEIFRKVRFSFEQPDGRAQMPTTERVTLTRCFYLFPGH
Outline: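 Enzyme preincubated with inhibitor in DMSO for 15 min at room temperature, then Succinyl-Tyr-Val-Ala-Asp-pNitroanilide added. pNA release followed at 405-603 nm, 37° C, over 20 minutes; rates (mOD/min) from linear fits. Ki and inhibition mode from fitting rates at varying inhibitor concentrations to standard kinetic equations.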

ICE [3] = molecular target: T1, ICE; test: Enzyme assay with fluorescent substrate (Acetyl-Tyr-Val-Ala-Asp-AMC); format: biochemical; details: Example 2 table, read-out: Fluorescence Ki
Procedure: 2. Enzyme Assay with Fluorescent Substrate
This assay is run essentially according to Thornberry et al. (Nature 356: 768-774 (1992)), using substrate 17 referenced in that article. The substrate is: Acetyl-Tyr-Val-Ala-Asp-amino-4-methylcoumarin (AMC). The following components are mixed:
The assay is run in a 96 well microtiter plate. Buffer and ICE are added to the wells. The components are left to incubate at 37° C. for 15 minutes in a temperature-controlled wellplate. After the 15 minute incubation, the reaction is started by adding substrate directly to the wells and the reaction is monitored @37° C. for 30 minutes by following the release of the AMC fluorophore using an excitation wavelength for 380 nm and an emission wavelength of 460 nm. A linear fit of the data for each well is performed and a rate is determined in fluorescence units per second.
For determination of enzyme inhibition constants (Ki) or the mode of inhibition (competitive, uncompetitive or noncompetitive), the rate data determined in the enzyme assays at varying inhibitor concentrations are computer-fit to standard enzyme kinetic equations (see I. H. Segel, Enzyme Kinetics, Wiley-Interscience, 1975).

Q: Which IC50 ([1]; Example 4 table) does the source give for `O=C[C@H](CC(=O)O)NC(=O)[C@@H]1CCCN1C(=O)c1nc(CCCc2ccccc2)c[nH]1` [Compound 21d, (3S)3-{N-[4-(3-Phenylpropyl)imidazole-2-carbonyl]-L-prolinyl}amino-4-oxo-butanoic acid] here?
A: 4.8 µM

Q: What about the melting point of the same molecule?
A: 91 to 94 °C

Q: For `COc1ccc(CCCc2c[nH]c(C(=O)N3CCC[C@H]3C(=O)N[C@H](C=O)CC(=O)O)n2)cc1` [Compound 21e, (3S)3-{N-[4-[3-(4-Methoxyphenyl)propyl]imidazole-2-carbonyl]-L-prolinyl}amino-4-oxobutanoic acid], which IC50 ([1]; Example 4 table) is on record?
A: 2.9 µM

Q: What about the melting point of the same molecule?
A: 101 to 105 °C

Q: With `O=C[C@H](CC(=O)O)NC(=O)[C@@H]1CCCN1C(=O)c1nc(CCCc2ccc(O)cc2)c[nH]1` [Compound 21f, (3S)3-{N-[4-[3-(4-Hydroxyphenyl)propyl]imidazole-2-carbonyl]-L-prolinyl}amino-4-oxobutanoic acid] as the molecule, how does the IC50 ([1]; Example 4 table) read?
A: 2.9 µM

Q: What about the melting point of the same molecule?
A: 114 to 118 °C

Q: With `C[C@H](NC(=O)c1cnc(CCc2ccc(C(F)(F)F)cc2)[nH]1)C(=O)N[C@H](C=O)CC(=O)O` [Compound 33b, (3S)3-{N-[2-(2-[4-Trifluoromethylphenyl]ethyl)imidazole-4-carbonyl]-L-alaninyl}-amino-4-oxobutanoic acid] as the molecule, how does the Ki (ICE [2]; Example 2 table) read?
A: 10 µM

Q: And the Ki (ICE [2]; Example 4 table)?
A: 10 µM

Q: And the IC50 ([1]; Example 2 table)?
A: > 30 µM

Q: And the IC50 ([1]; Example 4 table)?
A: > 30 µM

Q: And the melting point?
A: 120 to 124 °C

Q: Which IC50 ([1]; Example 4 table) does the source give for `C[C@H](NC(=O)c1ccc(Cc2ccccc2)[nH]1)C(=O)N[C@H](C=O)CC(=O)O` [Compound 36b, (3S)3-[N-(5-Benzylpyrrole-2-carbonyl)-L-alaninyl]amino-4-oxobutanoic acid] here?
A: 17 µM

Q: And the melting point?
A: 109 to 112 °C

Q: For `O=C[C@H](CC(=O)O)NC(=O)[C@@H]1CCCN2CCC[C@H](NC(=O)CCc3ccccc3)C(=O)N12` [Compound 47b, [3S,(1S,9S)]3-(Octahydro-10-oxo-9-(3-phenylpropionylamino)-6H-pyridazino-[1,2-a][1,2]diazepine-1-carboxamido)-4-oxobutanoic acid], which Ki (ICE [2]; Example 4 table) is on record?
A: 0.027 µM

Q: And the IC50 ([1]; Example 4 table)?
A: 1.8 µM

Q: And the melting point?
A: 87 to 90 °C

Q: For `CCCCc1ccc(NC(=O)CCc2ccccc2)c(=O)n1CC(=O)N[C@H](C=O)CC(=O)O` [Compound 54d, 3(S)3-(6-Butyl-1,2-dihydro-2-oxo-3-(3-phenylpropionyl)amino-1-pyridyl)acetylamino-4-oxobutanoic acid], which Ki (ICE [2]; Example 4 table) is on record?
A: 1 µM

Q: What about the melting point of the same molecule?
A: 120 to 125 °C

Q: For `Cc1ccc(NC(=O)CCc2ccccc2)c(=O)n1CC(=O)N[C@H](C=O)CC(=O)O` [Compound 54e, 3(S)3-(1,2-Dihydro-6-methyl-2-oxo-3-(3-phenylpropionyl)amino-1-pyridyl)acetylamino-4-oxobutanoic acid], which Ki (ICE [2]; Example 4 table) is on record?
A: 3.5 µM

Q: And the melting point?
A: 129 to 138 °C

Q: For `O=C[C@H](CC(=O)O)NC(=O)Cn1cccc(NC(=O)CCc2ccccc2)c1=O` [Compound 54g, 3(S)3-(1,2-Dihydro-2-oxo-3-(3-phenylpropionyl)amino-1-pyridyl)acetylamino-4-oxobutanoic acid], which Ki (ICE [2]; Example 2 table) is on record?
A: 4.8 µM

Q: What about the Ki (ICE [2]; Example 4 table) of the same molecule?
A: 4.8 µM

Q: What about the IC50 ([1]; Example 4 table) of the same molecule?
A: > 20 µM

Q: What about the melting point of the same molecule?
A: 140 to 145 °C (dec.)

Q: Which results are given for `O=C[C@H](CC(=O)O)NC(=O)Cn1c(Cc2ccccc2)ccc(NS(=O)(=O)CCc2ccccc2)c1=O` [Compound 54j, 3(S)3-(6-Benzyl-1,2-dihydro-2-oxo-3-(2-phenylethane-sulphonyl)amino-1-pydridyl)acetylamino-4-oxobutanoic acid]?
A: Ki (ICE [2]; Example 4 table): 0.28 µM; IC50 ([1]; Example 6 table): 10 µM; melting point: 102 to 105 °C

Q: For `O=C[C@H](CC(=O)O)NC(=O)Cn1c(Cc2ccccc2)ccc(NC(=O)OCCc2ccccc2)c1=O` [Compound 54k, 3(S)3-(6-Benzyl-1,2-dihydro-2-oxo-3-(2-phenylethoxy)carbonylamino-1-pyridyl)acetylamino-4-oxobutanoic acid], which Ki (ICE [2]; Example 4 table) is on record?
A: 0.085 µM

Q: And the IC50 ([1]; Example 6 table)?
A: 6.6 µM

Q: And the melting point?
A: 84 to 86 °C

Q: Which IC50 ([1]; Example 6 table) does the source give for `O=C(O)CC(NC(=O)Cn1c(Cc2ccccc2)ccc(NC(=O)CCc2ccccc2)c1=O)C(=O)COC(=O)c1c(Cl)cccc1Cl` (centres unmarked) [Compound 57b, N-2-(6-Benzyl-1,2-dihydro-2-oxo-3-(3-phenylpropionyl)amino-1-pyridyl)acetyl-3-amino-5-(2,6-dichloro-benzoyloxy)-4-oxo-pentanoic acid] here?
A: 2.2 µM

Q: What about the melting point of the same molecule?
A: 116 to 120 °C (dec.)

Q: Which Ki (ICE [2]; Example 6 table) does the source give for `O=C(O)C[C@H](NC(=O)[C@@H]1CCCN2C(=O)CC[C@H](NC(=O)CCc3ccccc3)C(=O)N12)C(=O)CSCc1ccccc1Cl` [Compound 125b, [3S(1S,9S)]-3-(6,10-dioxo-1,2,3,4,7,8,9,10-octahydro)-9-(3-phenylpropionyl-amino)-6H-pyridazine[1,2-a][1,2]diazepine-1-carboxamido-5-(2-chlorophenyl-methylthio)-4-oxopentanoic acid] here?
A: 0.06 µM

Q: What about the IC50 ([1]; Example 6 table) of the same molecule?
A: 0.3 µM

Q: What about the melting point of the same molecule?
A: 76 to 80 °C

Q: Which Ki (ICE [2]; Example 2 table) does the source give for `CC(=O)N[C@@H](Cc1ccc(O)cc1)C(=O)N[C@H](C(=O)N1CCCC[C@H]1C(=O)N[C@H](C=O)CC(=O)O)C(C)C` [H, N-(N-Acetyl-tyrosinyl-valinyl-pipecolyl)-3-amino-4-oxobutanoic acid] (Ac-YV[Pip]D-aldehyde) here?
A: 0.023 µM

Q: And the IC50 ([1]; Example 2 table)?
A: 6 to 11 µM

Q: And the Ki (ICE [3])?
A: 0.0047 µM
